This passage reports AC50 results from PubChem BioAssay AID743417 (Broad Institute, 2014).

Records with an inconclusive call do not appear. Calls of active or inactive are those of the source.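 How the source made its calls: active means compounds lowering the luciferase signal with a fitted half-maximal dose at most twice their top valid dose (cut at about 30 µM in these data); inconclusive means flat fits with moderate signal loss, or poor fits; inactive means the rest.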

The experiment concerns Clone20 osteoblast Shn3 3'UTR firefly luciferase, 24 h. As to the kind of experiment: Schnurri-3 3'UTR-luciferase signal suppressors – cell-based, Clone20 osteoblasts, luminescence, dry powder, set 2, dose response (AID 743417).
Regarding `Cn1nc(-c2ccccn2)nc2c(=O)n(C)c(=O)nc1-2`, the AC50 was 493 nM.

Regarding `C/C1=C\[C@@H](C)C/C=C/[C@H]2[C@@H]3O[C@]3(C)[C@@H](C)[C@H]3[C@H](Cc4c[nH]c5ccccc45)NC(=O)[C@]32C(=O)/C=C/C(=O)[C@@H]1O`, the AC50 is 6440 nM.

For the compound `Cc1ccccc1CS(=O)(=O)c1ncc(Cl)c(C(=O)Nc2ccc(F)cc2)n1`, the AC50 was 3000 nM.

`CCOC(=O)c1ccc(NC(=O)c2nc(S(=O)(=O)Cc3ccccc3)ncc2Cl)cc1`: the AC50 was 572 nM.

On to `CS(=O)(=O)c1ccc(Sc2nc3ccccc3s2)c([N+](=O)[O-])c1`, for which the half-maximal activity concentration (AC50) was 9730 nM.

Regarding `Oc1ccc(CN2CCCc3ccccc32)c2cccnc12`, the AC50 was 5400 nM.

Turning to `COc1ccc(CNC(=O)C(C)n2ccc3cc(S(=O)(=O)N4CCCCCC4)ccc32)cc1` (configuration not stated), the AC50 is 518 nM.

In the case of `O=C(Nc1cccc(F)c1)c1cc(S(=O)(=O)NCCC2=CCCCC2)ccc1F`, the AC50 is 4160 nM.

As for `CCOc1ccc(CCN2C(=S)N([C@@H](CC(C)C)CN3CCCC3CN3C(=S)NC[C@@H]3Cc3ccc(O)cc3)C[C@@H]2Cc2ccc(O)cc2)cc1` (some centres not stated), the AC50 is 11500 nM.

With `O=[N+]([O-])c1cc(CN2CCN(c3ccccc3)CC2)c(O)c2ncccc12`, the AC50 was 1990 nM.

Consider `CC1(C)CC2CC(C)(CN2c2ncnc3ccc(Br)cc23)C1` (configuration not stated), for which the AC50 was 2110 nM.

Take `Cc1cc(C)nc(S/C=C/C(=O)c2ccccc2)n1`: the AC50 was 1720 nM.

Take `CC(=O)c1ccc(N2CCN(c3ccc(S(=O)(=O)NCCCN(C)C)cc3[N+](=O)[O-])CC2)cc1`: the AC50 is 3780 nM.

Consider `Cc1cc(O)c(C(C)C)cc1C1(c2cc(C(C)C)c(O)cc2C)OC(=O)c2ccccc21`, for which the AC50 is 9450 nM.

`CCCCNc1cccc2c1S(=O)(=O)N(CCCC)CC(COCc1ccccc1)O2` (configuration not stated): the AC50 is 8930 nM.

With `O=c1c2ccccc2nc2n1C(CSCc1ccc(Cl)cc1Cl)CS2` (configuration not stated), the AC50 is 1450 nM.

As for `CC1CN(C(=O)CCc2cc(C(C)(C)C)c(O)c(C(C)(C)C)c2)CC(C)O1` (configuration not stated), the AC50 is 2560 nM.

In the case of `O=C1N(c2ccccc2)C[C@@H]2C[C@@H](c3cc4ccccc4o3)N3CCC[C@@]123`, the AC50 was 536 nM.

Regarding `Cc1cc(C(=O)NC2CCCc3c2cnn3-c2ccc(C)c(C)c2)n(C)n1` (configuration not stated), the AC50 was below 260 nM.

Turning to `O=C(CSc1nc(-c2ccco2)cc(C(F)(F)F)n1)Nc1ccc(C(=O)N2CCCCC2)cc1`, the AC50 is 2870 nM.

For `CCn1c(=NC(=O)CS(=O)(=O)c2ccccc2)sc2cccc(OC)c21`, the AC50 is 1680 nM.

On to `Cc1cc(S(=O)(=O)NCc2ccncc2)c(C)cc1Br`, for which the AC50 was 1230 nM.

On to `COc1ccc(NS(=O)(=O)c2ccc3ccccc3c2)c2ncccc12`, for which the AC50 was 4820 nM.

Regarding `O=C(CN1C(=O)c2ccccc2S1(=O)=O)c1ccc2c(c1)OCCCO2`, the AC50 was 262 nM.

Consider `COCCN1Cc2cccc(C(=O)Nc3ccc4c(c3)OCCO4)c2C1=O`, for which the AC50 is 27100 nM.

With `CCC1CCCCN1S(=O)(=O)c1ccc(NC(=O)c2ccncc2)cc1` (configuration not stated), the AC50 is 3430 nM.

As to `CCOC(=O)c1c2c(n(Cc3ccccc3)c1C)C(=O)C(=O)c1ccccc1-2`, the AC50 is 2300 nM.

For `O=C(CSc1n[nH]c(-c2ccccn2)n1)Nc1cccc(Cl)c1`, the AC50 is 2900 nM.

`COc1ccc(CC(=O)Nc2ccncc2Cl)cc1`: the AC50 was 2120 nM.

With `CC[C@H](C)C(=O)O[C@H]1C[C@@H](C)C=C2C=C[C@H](C)[C@H](CC[C@@H]3C[C@@H](O)CC(=O)O3)[C@H]21`, the AC50 is 1620 nM.

Turning to `CCCCCCn1c(NCC)nc2c1c(=O)n(C)c(=O)n2C`, the AC50 was 834 nM.

As to `CNC(=O)c1nnsc1S(=O)c1ccc(Cl)cc1` (configuration not stated), the AC50 is 2020 nM.

As for `O=C(Nc1ccc2nc3n(c(=O)c2c1)CCCC3)c1cc([N+](=O)[O-])ccc1F`, the concentration at half-maximal activity (AC50) is 361 nM.

In the case of `CC(Sc1nc2ccccc2c(=O)n1C)C(=O)NC1CCCCC1C` (configuration not stated), the AC50 is 3460 nM.

With `Cc1ccc(NC(=O)c2nc(S(=O)(=O)Cc3ccccc3)ncc2Cl)cc1`, the AC50 is 3420 nM.

For `CN1CCN(Cc2nc3ccccc3c(=O)n2Cc2nc(-c3ccc4ccccc4c3)cs2)CC1`, the AC50 was 11000 nM.

Turning to `CS(=O)(=O)N1CCN(c2ccc(NC(=O)c3ccc([N+](=O)[O-])o3)cc2)CC1`, the half-maximal activity concentration (AC50) is 5650 nM.

`CCOc1cc(/C=C\[N+](=O)[O-])ccc1OCC(=O)Nc1ccccc1C`: the AC50 is below 260 nM.

As for `CCc1ccccc1NC(=O)COC(=O)c1c(C)nsc1NC`, the AC50 was 2480 nM.

For the compound `CC(C)Oc1ccc(S(=O)(=O)N2CCCCC2)cc1NC(=O)CN1CCCC1c1cccs1` (configuration not stated), the AC50 is 7880 nM.

Consider `CCCC(=O)NC(c1cccc([N+](=O)[O-])c1)c1ccc2cccnc2c1O` (configuration not stated), for which the AC50 was 1750 nM.

For the compound `COc1ccc(Cc2nccc3cc(OC)c(OC)cc23)cc1OC`, the half-maximal activity concentration (AC50) is 2480 nM.

For the compound `C=C1C(=O)C23C(O)C1CCC2C12CCCC(C)(COC(C)=O)C1C(O)C3(O)OC2` (configuration not stated), the AC50 was 771 nM.

Consider `Nc1nc(Cl)cc(N2CCC(c3cc(-c4ccc(Cl)cc4)n[nH]3)CC2)n1`, for which the AC50 was 2430 nM.

As to `Cc1nc(-n2[nH]c3c(c2=O)CCCC3)[nH]c(=O)c1Cc1ccccc1`, the AC50 was 4440 nM.

Consider `Cn1c(/C=C/c2ccc([N+](=O)[O-])o2)nc2ccccc2c1=O`, for which the AC50 is 2370 nM.

With `C=C1CC(COc2ccc3c(C)c(Cl)c(=O)oc3c2)(c2ccccc2)OC1=O` (configuration not stated), the AC50 was 4820 nM.

`O=C(C1CCC(CNS(=O)(=O)c2cccs2)CC1)N1CCN(c2ccc(Cl)cc2)CC1` (configuration not stated): the concentration at half-maximal activity (AC50) is 1610 nM.

Take `COc1ccccc1-c1cc(C(F)(F)F)nc(S(=O)(=O)CCCC(=O)N2CCCCC2C)n1` (configuration not stated): the half-maximal activity concentration (AC50) is 2650 nM.

Regarding `CCCCN1CC(COCc2ccccc2)Oc2cccc(Oc3cc(C)c(C)c(C)c3)c2S1(=O)=O` (configuration not stated), the AC50 was 9160 nM.

Regarding `Cc1ccc(-c2nnc(N3CCC(C)CC3)c3ccccc23)cc1C`, the AC50 is 6410 nM.

Consider `N=c1n(Cc2ccc(Cl)cc2)c2ccccc2n1CC(O)COc1ccccc1` (configuration not stated), for which the AC50 was 2340 nM.

`Cc1cccc(NC(=O)CSc2nc3ccccc3c(=O)n2C)c1C`: the AC50 is 2980 nM.

With `COc1cccc(OCCn2cc(C(C)=O)c3ccccc32)c1`, the AC50 is 1850 nM.

For the compound `CCCC(=O)OCCNc1cc(Sc2nccn2C)c2nonc2c1[N+](=O)[O-]`, the AC50 was 7220 nM.

`Cc1ccc(S(=O)(=O)c2ncccc2[N+](=O)[O-])cc1`: the AC50 is 1910 nM.

As to `NC1=NC[C@H](c2ccccc2)N1CCCCC1CCCCC1`, the concentration at half-maximal activity (AC50) was 4230 nM.

For the compound `Cc1cccc(NC(=O)/C=C/c2ccc([N+](=O)[O-])s2)c1`, the AC50 was 3290 nM.

As for `c1ccc(CNc2ncnc3scc(-c4cccs4)c23)nc1`, the half-maximal activity concentration (AC50) was 3590 nM.

`Cc1ccc(-c2nc3cccnc3o2)cc1NC(=O)COc1ccc(C(C)(C)C)cc1`: the AC50 is 10800 nM.

As for `CS(=O)(=O)c1ncc(Cl)c(C(=O)Nc2ccc(N3CCOCC3)cc2)n1`, the half-maximal activity concentration (AC50) was 1210 nM.

`O=C(/C=C/c1ccccc1)NC(NC(=S)Nc1ccc(Cl)cc1)C(Cl)(Cl)Cl` (configuration not stated): the AC50 is 5130 nM.

For `Cc1ccnc(N/C=C(/NC(=O)c2ccccc2)C(=O)N/N=C\c2ccc(F)cc2)n1`, the AC50 is > 70000 nM (inactive).

Take `C[n+]1c2n(c3ccccc31)N=C(c1cc(C(C)(C)C)c(O)c(C(C)(C)C)c1)CS2`: the AC50 is 5920 nM.

Turning to `O=C(/C=C/Nc1ccccc1Br)c1ccccn1`, the AC50 is 1800 nM.

Regarding `Clc1ccc(C[n+]2cc(-c3ccccc3)n3c2CCCCC3)c(Cl)c1`, the half-maximal activity concentration (AC50) is 1200 nM.

As to `CN(C)c1nc(-c2ccccn2)nnc1-c1ccccc1`, the AC50 was 3300 nM.

On to `COc1ccc(Nc2cc(C)nc(NCc3ccccc3)n2)cc1`, for which the AC50 was 3900 nM.

With `COc1ccc(CCNc2cc(N3CCN(C(=O)c4ccccc4OC)CC3)ccc2[N+](=O)[O-])cc1OC`, the AC50 was 2630 nM.

Regarding `CC(C)[C@H](NC(=O)OC(C)(C)C)c1nnc(S(=O)(=O)Cc2c(F)cccc2Cl)o1`, the AC50 is 1080 nM.

For `COC1CC2C=C(C)C=CC=CC(=O)NC(c3ccccc3)CC=CCCC(O)CC(=O)C2=C1O` (configuration not stated), the AC50 is 629 nM.

Regarding `O=C(NC1CCCCCCC1)c1cc(COc2ccc3ncccc3c2)on1`, the AC50 is 1060 nM.

In the case of `CCC1CN2CCc3cc(OC)c(OC)cc3C2CC1CC1NCCc2c1[nH]c1ccc(O)cc21` (configuration not stated), the AC50 was below 260 nM.

Take `O=[N+]([O-])c1ccc(Sc2cccc3cccnc23)c([N+](=O)[O-])c1`: the AC50 was 1710 nM.

Consider `O=C(c1ccccc1)C(CCC(CN1CCOCC1)C(=O)c1ccccc1)CN1CCOCC1` (configuration not stated), for which the AC50 is 12800 nM.

In the case of `COCCn1c(CN2CCN(c3cccc(Cl)c3)CC2)nc2c1c(=O)n(C)c(=O)n2C`, the AC50 was 10700 nM.

Turning to `CC1=NNC(=O)/C1=C\c1cn(-c2ccccc2)nc1-c1ccccc1`, the AC50 is 8420 nM.

Regarding `Cc1ccc(S(=O)(=O)N2CCN(c3ncnc4sccc34)CC2)cc1C`, the concentration at half-maximal activity (AC50) was 3530 nM.

In the case of `COc1cc(SC)ccc1C(=O)Nc1nc2ccccc2[nH]1`, the AC50 was below 260 nM.

For the compound `CC(=O)c1cccc(-c2csc3ncnc(Sc4nnnn4C)c23)c1`, the concentration at half-maximal activity (AC50) is 4720 nM.

As to `Cc1oc(-c2ccc(Cl)cc2)nc1CS(=O)CC(=O)NCCCN1CCN(Cc2ccccc2)CC1` (configuration not stated), the half-maximal activity concentration (AC50) is 2520 nM.

For the compound `Cc1ccc(Nc2nc(NCC3CC3)nc3ccsc23)c(C)c1`, the AC50 is 5820 nM.

Regarding `COc1ccc(NS(=O)(=O)c2cccc(NC(=O)c3ccc(S(=O)(=O)N4CCCCCC4)cc3)c2)cc1`, the AC50 is 829 nM.

For `CC(C)n1c(/C=C/[C@H](O)C[C@H](O)CC(=O)O)c(-c2ccc(F)cc2)c2ccccc21`, the AC50 was 1420 nM.

Regarding `Cc1nc2ccccn2c1C(=O)NC1CCCc2ccccc21` (configuration not stated), the concentration at half-maximal activity (AC50) is 2470 nM.

In the case of `CCOc1cccc(CNCCc2c(C)[nH]c3ccc(OC(F)(F)F)cc23)c1O`, the AC50 is 611 nM.

As for `CCC(CC)CC1CN2CCc3cc(OC)c(OC)cc3C2CC1(O)CC` (configuration not stated), the AC50 is 2000 nM.

For `Cc1ccc(NC(=O)c2oc3ccccc3c2COC(C)C)cc1S(=O)(=O)N1CCOCC1`, the AC50 is 14400 nM.

For `C=C1C(=O)[C@]23C[C@H]1CCC2[C@@]1(C)C(C[C@@H]3O)[C@](C)(C(=O)OC)CC[C@@H]1OC(C)=O` (some centres not stated), the AC50 was 2140 nM.

As to `CC(C)OC(=O)c1ccc(NCc2cc(O)ccc2O)cc1`, the AC50 was 1900 nM.

For the compound `Cc1sc2ncnc(N3CCN(S(=O)(=O)c4ccc(Br)cc4)CC3)c2c1C`, the AC50 was 3590 nM.

As to `COC(=O)C1=C(c2ccc(OCc3ccccc3)cc2)C[C@@H]2CC[C@H]1N2C(=O)NCc1ccc(C(C)(C)C)cc1`, the AC50 is 6840 nM.
